Source: the NIST ThermoML archive (doi:10.1021/je400184t)

Experiment: excess molar enthalpy (molar enthalpy of mixing); xn = mol fraction of the nth substance listed
Settings: 298.15 K, 101 kPa, Liquid, Calvet calorimetry

CN(CCO)CCO [N-methyldiethanolamine] + c1ccncc1
Settings | excess molar enthalpy [kcal/mol]
x2 = 0.00136 | -0.000478
x2 = 0.00718 | -0.00191
x2 = 0.01292 | -0.00335
x2 = 0.0186 | -0.00454
x2 = 0.02422 | -0.00598
x2 = 0.03106 | -0.00717
x2 = 0.0378 | -0.00837
x2 = 0.04445 | -0.00956
x2 = 0.051 | -0.0105
x2 = 0.05747 | -0.0115
x2 = 0.06385 | -0.0124
x2 = 0.0715 | -0.0134
x2 = 0.07636 | -0.0143
x2 = 0.08249 | -0.0151
x2 = 0.08853 | -0.0158
x2 = 0.0945 | -0.0165
x2 = 0.1062 | -0.0172
x2 = 0.1119 | -0.0179
x2 = 0.1176 | -0.0186
x2 = 0.1232 | -0.0191
x2 = 0.1287 | -0.0198
x2 = 0.1342 | -0.0203
x2 = 0.139 | -0.0208
x2 = 0.1396 | -0.0215
x2 = 0.1449 | -0.022
x2 = 0.1528 | -0.0225
x2 = 0.1606 | -0.0232
x2 = 0.2605 | -0.0282
x2 = 0.2684 | -0.0284
x2 = 0.2722 | -0.0287
x2 = 0.278 | -0.0287
x2 = 0.2817 | -0.0289
x2 = 0.2854 | -0.0287
x2 = 0.2891 | -0.0287
x2 = 0.2928 | -0.0289
x2 = 0.2964 | -0.0289
x2 = 0.2999 | -0.0289
x2 = 0.3034 | -0.0289
x2 = 0.3069 | -0.0289
x2 = 0.3104 | -0.0289
x2 = 0.3138 | -0.0289
x2 = 0.3172 | -0.0287
x2 = 0.3206 | -0.0287
x2 = 0.3239 | -0.0287
x2 = 0.3272 | -0.0287
x2 = 0.3304 | -0.0287
x2 = 0.3337 | -0.0287
x2 = 0.3368 | -0.0287
x2 = 0.34 | -0.0287
x2 = 0.3431 | -0.0284
x2 = 0.3463 | -0.0284
x2 = 0.3493 | -0.0284
x2 = 0.3524 | -0.0284
x2 = 0.3554 | -0.0284
x2 = 0.3584 | -0.0282
x2 = 0.3614 | -0.0282
x2 = 0.3643 | -0.0282
x2 = 0.3672 | -0.0282
x2 = 0.3701 | -0.028
x2 = 0.3729 | -0.028
x2 = 0.3758 | -0.028
x2 = 0.3786 | -0.0277
x2 = 0.3814 | -0.0277
x2 = 0.3841 | -0.0277
x2 = 0.3868 | -0.0277
x2 = 0.3895 | -0.0275
x2 = 0.3922 | -0.0275
x2 = 0.3949 | -0.0275
x2 = 0.3975 | -0.0272
x2 = 0.4001 | -0.0272
x2 = 0.4027 | -0.0272
x2 = 0.4053 | -0.027
x2 = 0.4078 | -0.027
x2 = 0.4104 | -0.027
x2 = 0.4129 | -0.0268
x2 = 0.4153 | -0.0268
x2 = 0.4178 | -0.0268
x2 = 0.4203 | -0.0265
x2 = 0.4227 | -0.0265
x2 = 0.4251 | -0.0265
x2 = 0.4274 | -0.0263
x2 = 0.4298 | -0.0263
x2 = 0.4321 | -0.0263
x2 = 0.4345 | -0.0261
x2 = 0.4368 | -0.0261
x2 = 0.4391 | -0.0258
x2 = 0.4414 | -0.0258
x2 = 0.4436 | -0.0258
x2 = 0.446 | -0.0256
x2 = 0.4482 | -0.0256
x2 = 0.4505 | -0.0256
x2 = 0.4528 | -0.0253
x2 = 0.4551 | -0.0253
x2 = 0.4574 | -0.0251
x2 = 0.4597 | -0.0251
x2 = 0.462 | -0.0251
x2 = 0.4643 | -0.0249
x2 = 0.4666 | -0.0249
x2 = 0.4689 | -0.0246
x2 = 0.4712 | -0.0246
x2 = 0.4735 | -0.0246
x2 = 0.4758 | -0.0244
x2 = 0.4781 | -0.0244
x2 = 0.4804 | -0.0241
x2 = 0.4827 | -0.0241
x2 = 0.4849 | -0.0241
x2 = 0.4872 | -0.0239
x2 = 0.4895 | -0.0239
x2 = 0.4918 | -0.0237
x2 = 0.4941 | -0.0237
x2 = 0.4964 | -0.0234
x2 = 0.4987 | -0.0234
x2 = 0.501 | -0.0234
x2 = 0.5033 | -0.0232
x2 = 0.5056 | -0.0232
x2 = 0.5079 | -0.0229
x2 = 0.5102 | -0.0229
x2 = 0.5125 | -0.0227
x2 = 0.5148 | -0.0227
x2 = 0.5171 | -0.0225
x2 = 0.5193 | -0.0225
x2 = 0.5216 | -0.0222
x2 = 0.5239 | -0.0222
x2 = 0.5262 | -0.0222
x2 = 0.5285 | -0.022
x2 = 0.5308 | -0.022
x2 = 0.5331 | -0.0217
x2 = 0.5354 | -0.0217
x2 = 0.5377 | -0.0215
x2 = 0.54 | -0.0215
x2 = 0.5423 | -0.0213
x2 = 0.5446 | -0.0213
x2 = 0.5469 | -0.021
x2 = 0.5492 | -0.021
x2 = 0.5515 | -0.0208
x2 = 0.5538 | -0.0208
x2 = 0.5561 | -0.0206
x2 = 0.5584 | -0.0206
x2 = 0.5606 | -0.0203
x2 = 0.5629 | -0.0203
x2 = 0.5652 | -0.0201
x2 = 0.5675 | -0.0201
x2 = 0.5698 | -0.0198
x2 = 0.5721 | -0.0198
x2 = 0.5744 | -0.0191
x2 = 0.5767 | -0.0196
x2 = 0.579 | -0.0194
x2 = 0.5813 | -0.0194
x2 = 0.5836 | -0.0191
x2 = 0.5859 | -0.0191
x2 = 0.5882 | -0.0189
x2 = 0.5905 | -0.0189
x2 = 0.5928 | -0.0186
x2 = 0.595 | -0.0186
x2 = 0.5974 | -0.0184
x2 = 0.5996 | -0.0182
x2 = 0.6019 | -0.0182
x2 = 0.6042 | -0.0179
x2 = 0.6065 | -0.0179
x2 = 0.6088 | -0.0177
x2 = 0.6111 | -0.0177
x2 = 0.6134 | -0.0174
x2 = 0.6157 | -0.0174
x2 = 0.618 | -0.0172
x2 = 0.6203 | -0.0172
x2 = 0.6226 | -0.017
x2 = 0.6249 | -0.0167
x2 = 0.6272 | -0.0167
x2 = 0.6295 | -0.0165
x2 = 0.6318 | -0.0165
x2 = 0.6341 | -0.0163
x2 = 0.6363 | -0.0163
x2 = 0.6386 | -0.016
x2 = 0.6409 | -0.016
x2 = 0.6432 | -0.0158
x2 = 0.6455 | -0.0155
x2 = 0.6478 | -0.0155
x2 = 0.6501 | -0.0153
x2 = 0.6524 | -0.0153
x2 = 0.6547 | -0.0151
x2 = 0.657 | -0.0148
x2 = 0.6593 | -0.0148
x2 = 0.6616 | -0.0146
x2 = 0.6639 | -0.0146
x2 = 0.6662 | -0.0143
x2 = 0.6685 | -0.0143
x2 = 0.6707 | -0.0141
x2 = 0.6731 | -0.0139
x2 = 0.6753 | -0.0139
x2 = 0.6776 | -0.0136
x2 = 0.6799 | -0.0136
x2 = 0.6822 | -0.0134
x2 = 0.6845 | -0.0131
x2 = 0.6868 | -0.0131
x2 = 0.6891 | -0.0129
x2 = 0.6914 | -0.0127
x2 = 0.6937 | -0.0127
x2 = 0.696 | -0.0124
x2 = 0.6983 | -0.0124
x2 = 0.7006 | -0.0122
x2 = 0.7029 | -0.012
x2 = 0.7052 | -0.012
x2 = 0.7075 | -0.0117
x2 = 0.7097 | -0.0115
x2 = 0.712 | -0.0115
x2 = 0.7143 | -0.0112
x2 = 0.7166 | -0.0112
x2 = 0.7189 | -0.011
x2 = 0.7212 | -0.0108
x2 = 0.7235 | -0.0108
x2 = 0.7258 | -0.0105
x2 = 0.7281 | -0.0103
x2 = 0.7304 | -0.0103
x2 = 0.7327 | -0.01
x2 = 0.735 | -0.0098
x2 = 0.7373 | -0.0098
x2 = 0.7396 | -0.00956
x2 = 0.7419 | -0.00956
x2 = 0.7442 | -0.00932
x2 = 0.7464 | -0.00908
x2 = 0.7488 | -0.00908
x2 = 0.751 | -0.00884
x2 = 0.7533 | -0.0086
x2 = 0.7556 | -0.0086
x2 = 0.7579 | -0.00837
x2 = 0.7602 | -0.00813
x2 = 0.7625 | -0.00813
x2 = 0.7648 | -0.00789
x2 = 0.7671 | -0.00765
x2 = 0.7694 | -0.00765
x2 = 0.7717 | -0.00741
x2 = 0.774 | -0.00717
x2 = 0.7763 | -0.00717
x2 = 0.7786 | -0.00693
x2 = 0.7809 | -0.00669
x2 = 0.7827 | -0.00669
x2 = 0.7869 | -0.00645
x2 = 0.7911 | -0.00598
x2 = 0.7953 | -0.00574
x2 = 0.7996 | -0.0055
x2 = 0.8039 | -0.00526
x2 = 0.8083 | -0.00502
x2 = 0.8127 | -0.00454
x2 = 0.8172 | -0.0043
x2 = 0.8217 | -0.00406
x2 = 0.8263 | -0.00359
x2 = 0.8309 | -0.00335
x2 = 0.8356 | -0.00311
x2 = 0.8404 | -0.00287
x2 = 0.8451 | -0.00239
x2 = 0.85 | -0.00215
x2 = 0.8549 | -0.00191
x2 = 0.8598 | -0.00167
x2 = 0.8648 | -0.0012
x2 = 0.8699 | -0.000956
x2 = 0.875 | -0.000717
x2 = 0.8802 | -0.000478
x2 = 0.8855 | -0.000239
x2 = 0.8908 | 0
x2 = 0.8962 | 0.000239
x2 = 0.9016 | 0.000478
x2 = 0.9071 | 0.000717
x2 = 0.9127 | 0.000956
x2 = 0.9183 | 0.0012
x2 = 0.9241 | 0.00143
x2 = 0.9298 | 0.00143
x2 = 0.9357 | 0.00167
x2 = 0.9416 | 0.00167
x2 = 0.9477 | 0.00167
x2 = 0.9538 | 0.00191
x2 = 0.9599 | 0.00167
x2 = 0.9662 | 0.00167
x2 = 0.9725 | 0.00167
x2 = 0.9789 | 0.00143
x2 = 0.9854 | 0.0012
x2 = 0.992 | 0.000717
x2 = 0.9987 | 0.000239
